Measured values: publication PMC9283668, “Natural and commercial antibiotic comparison with drugs modeling cell integrity cell stability of Bio-Kinetics changes under morphological topographies cells with lower toxicological characteristics for multidrug resistances problem” (Saudi Journal of Biological Sciences, 2022)

Tests used:
[1] = Experimental: (§1) Pharmacokinetic compartment modelling was used on these novel substances, which had been derived from A. vasica and C. procera. The half-life was determined by the regions under plasma concentration, while the peak plasma concentration as well as timing acquired immediately from the dataset obtained in this investigation. Medicinal phyto-constituents were incorporated to the compartment model and an automatic calculating software tool was coupled with win-Nonlin ® Software to these bioactive chemicals.
Selected compounds were administered using a one-compartment oral dosage model, extract the one-compartment model parameters, the non-compartment model Parameters are necessary. The equations for non-compartment and one-compartment variables are given below respectively. • (1) w = (AUC, T max, T1/2) • (2) β = (ka, ke, V). • (3) β = (ke, V) • (4) CL po = V × Ke
If only oral clearance is required, CL po should be used instead of AUC. When it comes to IV dosage, however, just w = (AUC, T1/2) is required to claim the single dozes changes in (3).
Plasma concertation either orally or via an injection of selected compounds The natural antibiotic compounds by being taken into cells and either bacterial changes and it formed a tragedy to cells as expressed complete changes used in the formation of ATP in cells. The pharmacokinetic description of antibiotic compounds are shown in below equation and represented mathematically by equations (1), (2), (3), (4).(1) dSdt=rS,end+rS,ex-rS,elim (2) rS,end=f(t,S,I,G,E,F,A,KS,end) (3) rS,ex=g(t,MS) (4) rS,elim=h(t,S,I,E,KS,elim)

[2] = type: in vitro ADME
Experimental: as §1, with “[…].” for “vasica and C.”

| Compound | AUC, area under plasma concentration (Mean) [1] | T max (Mean) [1] | Half life (Mean) [1] | Absorption capacity (Mean) [2] |
| --- | --- | --- | --- | --- |
| CCCCC/C=C\C/C=C\CCCCCCCC(=O)O[C@H]1CC[C@@]2(C)C(=CC[C@H]3[C@@H]4CC[C@H]([C@H](C)CC[C@@H](CC)C(C)C)[C@@]4(C)CC[C@@H]32)C1 [B-Sitosteryl linoleate] | 0.1 | – | – | – |
| Myristyl diglucoside | – | 0.2 | – | – |
| S-allylcysteine acid | 0.1 | – | 2.1 | 2.1 |
